Source: patent US20250066409A1, “DERIVATIVE OF PENTACYCLIC TRITERPENOIDAL SAPONIN AND ITS PREPARATION METHOD AND APPLICATION” (SOOCHOW UNIVERSITY, priority 2022, published 2025)

Experiments:
[1] = tested on: IL-6; assay: IL-6 release from LPS-stimulated THP-1 cells, ELISA; format: cell-based; conditions: pretreatment 1 h, LPS 1 μg/mL 24 h, P<0.05
Method: (§1) THP-1 cells were seeded in a 6-well plate at 2×10^5 cells/well and cultured conventionally. After the cells reached 80%, they were induced with 100 ng/ml of PMA for 12 h, and then the original medium was discarded, and new complete medium was added. The control group was pretreated with B4 (0.1, 1, 10 μM) for 1 h, and the experimental group was pretreated with A3-6 (0.1, 1, 10 μM) for 1 h. After 1 h, the other groups were removed from the blank group and incubated with 1 μg/mL LPS for 24 h. The culture supernatant was collected, and the IL-6 and TNF-α contents were finally determined and calculated using ELISA kits step by step according to their instructions. The effect of A3-6 on the release of inflammatory factors was tested by ELISA kits.

[2] = tested on: TNF-α; assay: TNF-α release from LPS-stimulated THP-1 cells, ELISA; format: cell-based; conditions: pretreatment 1 h, LPS 1 μg/mL 24 h, P<0.05
Method: as §1

[3] = tested on: DSS-induced colitis mice; assay: DSS-induced colitis in mice (DAI score, colon length); format: in vivo, ICR mice; conditions: B4 group (100 mg/kg by gavage), 5% DSS mice
Method: ICR mice were fed normally for 3 days, with free access to water and food during the feeding period. After weighing, the mice were randomly divided into groups, including normal group, model group (DSS group), A3-6 (15, 30, 60 mg/kg) group, A3-6 (60 mg/kg)+DADA (50 mg/kg) group, and positive drug B4 (100 mg/kg) group. A3-6 was administered by gavage with hydroxypropyl β-cyclodextrin (1:3), B4 was dissolved in water and administered by gavage, and DADA (50 mg/kg) was injected intraperitoneally, once a day. The day before modeling, the weight was weighed and A3-6, DADA and B4 were pre-administered according to body weight. After 24 hours of administration, DSS was dissolved in the drinking water for mice. The mice in the model group and the administration group were continuously given 5% DSS for 8 days and weighed every day. […] After the 9th day of administration, the mice were sacrificed, blood and colon were collected, and the length of the colon was measured.
A3-6 (15 mg/kg, 30 mg/kg and 60 mg/kg) or B4 (100 mg/kg) were administered by gavage once daily for 9 days. […] The DAI scores of each group of mice were calculated daily according to the scoring requirements.
The mice colitis model was constructed using 5% DSS to evaluate the therapeutic effect of A3-6 on inflammatory bowel disease (IBD)-. […] The DAI score of the mice was comprehensively evaluated.

**Q.** For `C=C(C)[C@@H]1CC[C@]2(C(=O)O[C@@H]3O[C@H](CO[C@@H]4O[C@H](CO)[C@@H](O[C@@H]5O[C@@H](C)[C@H](O)[C@@H](O)[C@H]5O)[C@H](O)[C@H]4O)[C@@H](O)[C@H](O)[C@H]3O)CC[C@]3(C)[C@H](CC[C@@H]4[C@@]5(C)CC[C@H](O[C@@H]6OC[C@H](O)[C@H](O)[C@H]6O[C@@H]6O[C@@H](C)[C@H](O)[C@@H](O)[C@H]6O)[C@@](C)(CO)[C@@H]5CC[C@]43C)[C@@H]12` [B4, anemoside B4], which “release of IL-6 compared with the model group” value ([1]; 1 μM) is on record?
**A.** significantly reduced

**Q.** What about the “release of IL-6 compared with the model group” value ([1]; 10 μM) of the same molecule?
**A.** significantly reduced

**Q.** And the “release of TNF-α compared with the model group” value ([2]; 1 μM)?
**A.** significantly reduced

**Q.** And the “release of TNF-α compared with the model group” value ([2]; 10 μM)?
**A.** significantly reduced

**Q.** What about the colon length [3] of the same molecule?
**A.** could restore the colon length
